Data taken from ChEMBL document CHEMBL1137707, “First-principle, structure-based prediction of hepatic metabolic clearance values in human” (Eur J Med Chem, 2009).

Columns and labels:
Hepatocyte = experiment: (§1) Hepatic clearance in human hepatocytes in absence of fetal calf serum; conditions: hepatocytes
[1] = as §1

Question: For `CCCc1nn(C)c2c(=O)[nH]c(-c3cc(S(=O)(=O)N4CCN(C)CC4)ccc3OCC)nc12`, which logCL (Hepatocyte) is on record?
Answer: The logCL was 0.7782.

Question: For `O=C1CC2(CCCC2)CC(=O)N1CCCCN1CCN(c2ncccn2)CC1` [BUSPIRONE], which CLhep predicted ([1]; human hepatocytes) is on record?
Answer: Its CLhep predicted is 19.2 mL/min/kg.

Question: And the logCL (Hepatocyte)?
Answer: The logCL was 1.2833.

Question: What does the source list for `Cn1c(=O)c2c(ncn2C)n(C)c1=O` [CAFFEINE]?
Answer: CLhep predicted ([1]; human hepatocytes): 1.4 mL/min/kg; logCL (Hepatocyte): 0.1461

Question: For `COc1ccccc1OCCNCC(O)COc1cccc2[nH]c3ccccc3c12` (stereo unspecified) [CARVEDILOL], which CLhep predicted ([1]; hepatocytes) is on record?
Answer: Its CLhep predicted is 8.7 mL/min/kg.

Question: And the logCL (Hepatocyte)?
Answer: The logCL was 0.9395.

Question: Which CL (Hepatocyte) does the source give for `CN(C)CCCN1c2ccccc2Sc2ccc(Cl)cc21` [CHLORPROMAZINE] here?
Answer: Its CL is 8.6 mL/min/kg.

Question: What about the logCL (Hepatocyte) of the same molecule?
Answer: The logCL was 0.9345.

Question: For `CN1C(=O)CN=C(c2ccccc2)c2cc(Cl)ccc21` [DIAZEPAM], which logCL (Hepatocyte) is on record?
Answer: The logCL was -0.3665.

Question: Which results are given for `O=C(O)Cc1ccccc1Nc1c(Cl)cccc1Cl` [DICLOFENAC]?
Answer: CLhep predicted ([1]; hepatocytes): 7.33 mL/min/kg; logCL (Hepatocyte): 0.8651

Question: With `O=C(O)c1cc(-c2ccc(F)cc2F)ccc1O` [DIFLUNISAL] as the molecule, how does the CLhep predicted ([1]; hepatocytes) read?
Answer: The CLhep predicted was 0.18 mL/min/kg.

Question: What about the logCL (Hepatocyte) of the same molecule?
Answer: Its logCL is -0.7447.

Question: What does the source list for `COc1ccc([C@@H]2Sc3ccccc3N(CCN(C)C)C(=O)[C@@H]2OC(C)=O)cc1` [DILTIAZEM]?
Answer: CLhep predicted ([1]; human hepatocytes): 12.8 mL/min/kg; logCL (Hepatocyte): 1.1072

Question: Which CLhep predicted ([1]; human hepatocytes) does the source give for `CCc1cccc2c3c([nH]c12)C(CC)(CC(=O)O)OCC3` (stereo unspecified) [ETODOLAC] here?
Answer: The CLhep predicted was 1.31 mL/min/kg.

Question: What about the logCL (Hepatocyte) of the same molecule?
Answer: Its logCL is 0.1173.

Question: With `CC(C(=O)O)c1cccc(Oc2ccccc2)c1` (stereo unspecified) [FENOPROFEN] as the molecule, how does the logCL (Hepatocyte) read?
Answer: The logCL was 0.2279.

Question: For `Cc1ccc(C)c(OCCCC(C)(C)C(=O)O)c1` [GEMFIBROZIL], which CLhep predicted ([1]; hepatocytes) is on record?
Answer: Its CLhep predicted is 3.09 mL/min/kg.

Question: What about the logCL (Hepatocyte) of the same molecule?
Answer: Its logCL is 0.49.

Question: For `CN1C2CCCC1CC(NC(=O)c1nn(C)c3ccccc13)C2` (stereo unspecified) [GRANISETRON], which CLhep predicted ([1]; human hepatocytes) is on record?
Answer: The CLhep predicted was 11 mL/min/kg.

Question: What about the logCL (Hepatocyte) of the same molecule?
Answer: Its logCL is 1.0414.

Question: Which CLhep predicted ([1]; human hepatocytes) does the source give for `COc1ccc2c(c1)c(CC(=O)O)c(C)n2C(=O)c1ccc(Cl)cc1` [INDOMETHACIN] here?
Answer: Its CLhep predicted is 2.24 mL/min/kg.

Question: What about the logCL (Hepatocyte) of the same molecule?
Answer: The logCL was 0.3502.

Question: Which CL (Hepatocyte) does the source give for `CCCCC1=NC2(CCCC2)C(=O)N1Cc1ccc(-c2ccccc2-c2nnn[nH]2)cc1` [IRBESARTAN] here?
Answer: Its CL is 3.85 mL/min/kg.

Question: What about the logCL (Hepatocyte) of the same molecule?
Answer: The logCL was 0.5855.

Question: Which logCL (Hepatocyte) does the source give for `CCN(CC)CC(=O)Nc1c(C)cccc1C` [LIDOCAINE] here?
Answer: The logCL was 1.1761.

Question: Which CLhep predicted ([1]; human hepatocytes) does the source give for `O=C1Nc2ccc(Cl)cc2C(c2ccccc2Cl)=NC1O` (stereo unspecified) [LORAZEPAM] here?
Answer: The CLhep predicted was 1.1 mL/min/kg.

Question: And the logCL (Hepatocyte)?
Answer: The logCL was 0.0414.

Question: With `C[C@H]1C[C@@H]2[C@H]([C@@H](O)C[C@@]3(C)[C@H]2CC[C@]3(O)C(=O)CO)[C@@]2(C)C=CC(=O)C=C12` [METHYLPREDNISOLONE] as the molecule, how does the CLhep predicted ([1]; human hepatocytes) read?
Answer: Its CLhep predicted is 7.5 mL/min/kg.

Question: And the logCL (Hepatocyte)?
Answer: Its logCL is 0.8751.

Question: What does the source list for `COCCc1ccc(OCC(O)CNC(C)C)cc1` (stereo unspecified) [METOPROLOL]?
Answer: CLhep predicted ([1]; human hepatocytes): 12.2 mL/min/kg; logCL (Hepatocyte): 1.0846

Question: Which CLhep predicted ([1]; hepatocytes) does the source give for `Cc1ncc2n1-c1ccc(Cl)cc1C(c1ccccc1F)=NC2` [MIDAZOLAM] here?
Answer: The CLhep predicted was 6.6 mL/min/kg.

Question: And the logCL (Hepatocyte)?
Answer: Its logCL is 0.8195.

Question: For `CC(C)(O)c1ccccc1CC[C@@H](SCC1(CC(=O)O)CC1)c1cccc(/C=C/c2ccc3ccc(Cl)cc3n2)c1` [MONTELUKAST], which CLhep predicted ([1]; human hepatocytes) is on record?
Answer: Its CLhep predicted is 1.27 mL/min/kg.

Question: What about the logCL (Hepatocyte) of the same molecule?
Answer: Its logCL is 0.1038.

Question: With `C=CCN1CC[C@]23c4c5ccc(O)c4O[C@H]2C(=O)CC[C@@]3(O)[C@H]1C5` [NALOXONE] as the molecule, how does the CLhep predicted ([1]; human hepatocytes) read?
Answer: Its CLhep predicted is 19.5 mL/min/kg.

Question: What about the logCL (Hepatocyte) of the same molecule?
Answer: The logCL was 1.29.

Question: What does the source list for `Cc1nccn1CC1CCc2c(c3ccccc3n2C)C1=O` (stereo unspecified) [ONDANSETRON]?
Answer: CLhep predicted ([1]; human hepatocytes): 5.9 mL/min/kg; logCL (Hepatocyte): 0.7709

Question: With `CCOc1ccc(NC(C)=O)cc1` [PHENACETIN] as the molecule, how does the logCL (Hepatocyte) read?
Answer: The logCL was 1.2833.

Question: For `C[C@]12C=CC(=O)C=C1CC[C@@H]1[C@@H]2[C@@H](O)C[C@@]2(C)[C@H]1CC[C@]2(O)C(=O)CO` [PREDNISOLONE], which CLhep predicted ([1]; human hepatocytes) is on record?
Answer: The CLhep predicted was 8.7 mL/min/kg.

Question: And the logCL (Hepatocyte)?
Answer: The logCL was 0.9395.

Question: Which CLhep predicted ([1]; human hepatocytes) does the source give for `CC(C)c1nc(CN(C)C(=O)N[C@H](C(=O)N[C@@H](Cc2ccccc2)C[C@H](O)[C@H](Cc2ccccc2)NC(=O)OCc2cncs2)C(C)C)cs1` [RITONAVIR] here?
Answer: The CLhep predicted was 1.2 mL/min/kg.

Question: And the logCL (Hepatocyte)?
Answer: The logCL was 0.0792.

Question: Which CLhep predicted ([1]; hepatocytes) does the source give for `CN1C(C(=O)Nc2ccccn2)=C(O)c2sccc2S1(=O)=O` [TENOXICAM] here?
Answer: Its CLhep predicted is 0.073 mL/min/kg.

Question: And the logCL (Hepatocyte)?
Answer: Its logCL is -1.1367.

Question: For `Cn1c(=O)c2[nH]cnc2n(C)c1=O.O` [THEOPHYLLINE], which CLhep predicted ([1]; human hepatocytes) is on record?
Answer: Its CLhep predicted is 0.65 mL/min/kg.

Question: What about the logCL (Hepatocyte) of the same molecule?
Answer: The logCL was -0.1871.

Question: With `CC(C)(C)NC[C@H](O)COc1nsnc1N1CCOCC1` [TIMOLOL] as the molecule, how does the CLhep predicted ([1]; hepatocytes) read?
Answer: The CLhep predicted was 9.17 mL/min/kg.

Question: What about the logCL (Hepatocyte) of the same molecule?
Answer: Its logCL is 0.9624.

Question: Which results are given for `CCCCNC(=O)NS(=O)(=O)c1ccc(C)cc1` [TOLBUTAMIDE]?
Answer: CLhep predicted ([1]; hepatocytes): 0.3 mL/min/kg; logCL (Hepatocyte): -0.5229

Question: For `Cc1c(C)c2c(c(C)c1O)CCC(C)(COc1ccc(CC3SC(=O)NC3=O)cc1)O2` (stereo unspecified) [TROGLITAZONE], which CLhep predicted ([1]; human hepatocytes) is on record?
Answer: The CLhep predicted was 9 mL/min/kg.

Question: What about the logCL (Hepatocyte) of the same molecule?
Answer: The logCL was 0.9542.

Question: What does the source list for `CC(=O)CC(c1ccccc1)c1c(O)c2ccccc2oc1=O` (stereo unspecified) [WARFARIN]?
Answer: CLhep predicted ([1]; human hepatocytes): 0.16 mL/min/kg; logCL (Hepatocyte): -0.7959

Question: What does the source list for `Cc1cn([C@H]2C[C@H](N=[N+]=[N-])[C@@H](CO)O2)c(=O)[nH]c1=O` [ZIDOVUDINE]?
Answer: CLhep predicted ([1]; human hepatocytes): 12.4 mL/min/kg; logCL (Hepatocyte): 1.0934
